Test [1] has as its target T1, HePTP (Homo sapiens, UniProt P35236).
T1 sequence (P35236 1-360): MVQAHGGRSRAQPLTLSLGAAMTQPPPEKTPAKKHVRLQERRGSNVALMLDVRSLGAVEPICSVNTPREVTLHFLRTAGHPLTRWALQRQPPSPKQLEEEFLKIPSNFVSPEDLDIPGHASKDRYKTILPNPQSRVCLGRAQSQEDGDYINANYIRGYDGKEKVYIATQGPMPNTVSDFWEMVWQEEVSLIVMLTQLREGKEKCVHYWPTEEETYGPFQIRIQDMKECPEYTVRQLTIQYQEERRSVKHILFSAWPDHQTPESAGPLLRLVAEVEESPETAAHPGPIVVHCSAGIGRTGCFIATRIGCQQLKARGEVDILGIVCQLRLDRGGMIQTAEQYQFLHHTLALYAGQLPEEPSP
Description: HePTP dose-response confirmation screening. The test is classed as biochemical. The source says: (§1) The following assay can be conducted manually or can be carried out by a robotic station.
(§2) Compounds are then serially diluted in 100% DMSO, and then diluted with water to 10% final DMSO concentration.
(§3) The primary screening actives can then proceed to the dose-response confirmation stage.
* n represents the Hill coefficient. This coefficient is derived from the Hill equation which has the formula: […]
wherein θ is the fraction of ligand binding sites filled, L is the inhibitor concentration, Ka is the inhibitor concentration producing half occupation of the ligand binding sites, and n is the Hill coefficient.

The target of test [2] is T1, HePTP. Description: HePTP HTS primary screen (colorimetric pNPP / Biomol Green). The test is classed as biochemical. Conditions: 20 μM compound.
Description: as §1
For this assay, HePTP catalyzes the following reaction:
wherein p-nitrophenyl phosphate serves as a substrate and is cleaved to form p-nitrophenol and phosphate. The liberated phosphate complexes with the Biomol Green™ reagent to provide a quantitative colorimetric value for the amount of substrate cleaved.
as §2, §3

By IC50 is commonly meant the point on the concentration scale where inhibition reaches its midpoint.

For `NC(=O)c1c(NC(=O)CSc2nnc(-c3ccco3)n2-c2ccccc2)sc2c1CCC2` [3-[[2-[[5-(2-furyl)-4-phenyl-1,2,4-triazol-3 - yl]sulfanyl]acetyl]amino]-4-thiabicyclo[3.3.0]octa-2,9-diene-2-carboxamide], it took 10.6 µM to reach half-maximal inhibition on HePTP [1] (10 concentrations, 2-fold serial dilution, pNPP substrate) (IC50). Also, the “n / nH (Hill coefficient)” value on HePTP [1] (Hill coefficient of the dose-response curve) is reported as 4.06. Also, the “% Inhib. at 20 μM” value on HePTP [2] was found to be 97.5%.

The record behind these values is US20120095032A1, “METHODS FOR TREATING LEUKEMIA AND MYELODYSPLASTIC SYNDROME, AND METHODS FOR IDENTIFYING AGENTS FOR TREATING SAME” (Sanford-Burnham Medical Research Institute, priority 2007, published 2012).
